Source: patent US11395857B2, “Radiolabeled melanocortin 1 receptor-specific alpha-melanocyte-stimulating hormone analogues for imaging or therapy” (PROVINCIAL HEALTH SERVICES AUTHORITY, priority 2018, dated 2022)
Where two headings read alike, the source gives them in different places.

How the values were obtained:
B16F10 mouse melanoma = assay: Biodistribution of 177Lu-labeled αMSH analogues in mice bearing B16F10 mouse melanoma; format: in vivo, C57BL/6J mice; settings: C57BL/6J mice, B16F10 melanoma
Experimental: (§1) The B16-F10 mouse melanoma cells were cultured and inoculated in mice as described in Example 1.
(§2) For biodistribution studies, approximately 1-2 MBq of ^177Lu-labeled αMSH analogues via tail vein under anesthesia. At 1, 4, 24, and 120 h p.i., the mice were euthanized by CO2 inhalation. Organs/tissues were harvested and the radioactivity was measured as described in Example 1.

[1] = as above; format: in vivo, C57BL/6J mice; settings: mouse, iv, total radioactivity, C57BL/6J mice, B16F10 melanoma
Experimental: as §1, §2

Q: Which results are given for `CCCC[C@H](NC(=O)CN1CCC(NC(=O)[C@H](CCCCNC(=O)CN2CCN(CC(=O)O)CCN(CC(=O)O)CCN(CC(=O)O)CC2)NC(=O)[C@H](CCC(=O)O)NC(=O)CCCc2ccc(I)cc2)CC1)C(=O)N[C@H]1CC(=O)NCCCC[C@@H](C(N)=O)N(C)C(=O)[C@H](Cc2c[nH]c3ccccc23)NC(=O)[C@H](CCCNC(=N)N)N(C)C(=O)[C@@H](Cc2ccccc2)NC(=O)[C@H](Cc2c[nH]cn2)NC1=O` [^177Lu-labeled CCZ01118, metal not drawn]?
A: Biodistribution, B16F10 tumour (B16F10 mouse melanoma; 1 h p.i.): 24.4 ± 1.76 % ID/g; Biodistribution, B16F10 tumour (B16F10 mouse melanoma; 4 h p.i.): 29.7 ± 5.23 % ID/g; Biodistribution, B16F10 tumour (B16F10 mouse melanoma; 24 h p.i.): 18.4 ± 1.35 % ID/g; Biodistribution, B16F10 tumour (B16F10 mouse melanoma; 120 h p.i.): 2.63 ± 0.21 % ID/g; tissue uptake at 1 h ([1]; male, seminal glands, 1 h p.i., read-out: Biodistribution, Seminal glands): 0.5 ± 0.11 %ID/g; tissue uptake at 4 h ([1]; male, seminal glands, 4 h p.i., read-out: Biodistribution, Seminal glands): 0.15 ± 0.06 %ID/g; tissue uptake at 24 h ([1]; male, seminal glands, 24 h p.i., read-out: Biodistribution, Seminal glands): 0.04 ± 0.01 %ID/g; tissue uptake at 120 h ([1]; male, seminal glands, 120 h p.i., read-out: Biodistribution, Seminal glands): 0.02 ± 0.01 %ID/g; tissue uptake at 1 h ([1]; male, testes, 1 h p.i., read-out: Biodistribution, Testes): 1.07 ± 0.11 %ID/g; tissue uptake at 4 h ([1]; male, testes, 4 h p.i., read-out: Biodistribution, Testes): 0.4 ± 0.14 %ID/g; tissue uptake at 24 h ([1]; male, testes, 24 h p.i., read-out: Biodistribution, Testes): 0.16 ± 0.02 %ID/g; tissue uptake at 120 h ([1]; male, testes, 120 h p.i., read-out: Biodistribution, Testes): 0.1 ± 0.01 %ID/g; tissue uptake at 1 h ([1]; adrenal glands, 1 h p.i., read-out: Biodistribution, Adrenal glands): 2.9 ± 1.51 %ID/g; tissue uptake at 4 h ([1]; adrenal glands, 4 h p.i., read-out: Biodistribution, Adrenal glands): 0.54 ± 0.48 %ID/g; tissue uptake at 24 h ([1]; adrenal glands, 24 h p.i., read-out: Biodistribution, Adrenal glands): 0.2 ± 0.09 %ID/g; tissue uptake at 120 h ([1]; adrenal glands, 120 h p.i., read-out: Biodistribution, Adrenal glands): 0.18 ± 0.06 %ID/g; tissue uptake at 1 h ([1]; blood, 1 h p.i., read-out: Biodistribution, Blood): 6.87 ± 0.88 %ID/g; tissue uptake at 4 h ([1]; blood, 4 h p.i., read-out: Biodistribution, Blood): 1.41 ± 0.6 %ID/g; tissue uptake at 24 h ([1]; blood, 24 h p.i., read-out: Biodistribution, Blood): 0.05 ± 0.02 %ID/g; tissue uptake at 120 h ([1]; blood, 120 h p.i., read-out: Biodistribution, Blood): 0.01 %ID/g; tissue uptake at 1 h ([1]; bone, 1 h p.i., read-out: Biodistribution, Bone): 0.96 ± 0.18 %ID/g; tissue uptake at 4 h ([1]; bone, 4 h p.i., read-out: Biodistribution, Bone): 0.29 ± 0.11 %ID/g; tissue uptake at 24 h ([1]; bone, 24 h p.i., read-out: Biodistribution, Bone): 0.13 ± 0.03 %ID/g; tissue uptake at 120 h ([1]; bone, 120 h p.i., read-out: Biodistribution, Bone): 0.12 ± 0.04 %ID/g; tissue uptake at 1 h ([1]; brain, 1 h p.i., read-out: Biodistribution, Brain): 0.13 ± 0.01 %ID/g; tissue uptake at 4 h ([1]; brain, 4 h p.i., read-out: Biodistribution, Brain): 0.03 ± 0.02 %ID/g; tissue uptake at 24 h ([1]; brain, 24 h p.i., read-out: Biodistribution, Brain): 0.01 %ID/g; tissue uptake at 120 h ([1]; brain, 120 h p.i., read-out: Biodistribution, Brain): 0.01 %ID/g; tissue uptake at 1 h ([1]; fat, 1 h p.i., read-out: Biodistribution, Fat): 0.43 ± 0.08 %ID/g; tissue uptake at 4 h ([1]; fat, 4 h p.i., read-out: Biodistribution, Fat): 0.12 ± 0.03 %ID/g; tissue uptake at 24 h ([1]; fat, 24 h p.i., read-out: Biodistribution, Fat): 0.03 ± 0.01 %ID/g; tissue uptake at 120 h ([1]; fat, 120 h p.i., read-out: Biodistribution, Fat): 0.02 ± 0.01 %ID/g; tissue uptake at 1 h ([1]; heart, 1 h p.i., read-out: Biodistribution, Heart): 1.93 ± 0.16 %ID/g; tissue uptake at 4 h ([1]; heart, 4 h p.i., read-out: Biodistribution, Heart): 0.45 ± 0.19 %ID/g; tissue uptake at 24 h ([1]; heart, 24 h p.i., read-out: Biodistribution, Heart): 0.08 ± 0.01 %ID/g; tissue uptake at 120 h ([1]; heart, 120 h p.i., read-out: Biodistribution, Heart): 0.05 %ID/g; tissue uptake at 1 h ([1]; intestine, 1 h p.i., read-out: Biodistribution, Intestine): 1.2 ± 0.2 %ID/g; tissue uptake at 4 h ([1]; intestine, 4 h p.i., read-out: Biodistribution, Intestine): 1.53 ± 2.04 %ID/g; tissue uptake at 24 h ([1]; intestine, 24 h p.i., read-out: Biodistribution, Intestine): 0.21 ± 0.05 %ID/g; tissue uptake at 120 h ([1]; intestine, 120 h p.i., read-out: Biodistribution, Intestine): 0.1 ± 0.04 %ID/g; tissue uptake at 1 h ([1]; kidneys, 1 h p.i., read-out: Biodistribution, Kidneys): 12 ± 0.83 %ID/g; tissue uptake at 4 h ([1]; kidneys, 4 h p.i., read-out: Biodistribution, Kidneys): 12.7 ± 3.58 %ID/g; tissue uptake at 24 h ([1]; kidneys, 24 h p.i., read-out: Biodistribution, Kidneys): 6.32 ± 0.43 %ID/g; tissue uptake at 120 h ([1]; kidneys, 120 h p.i., read-out: Biodistribution, Kidneys): 1.43 ± 0.31 %ID/g; tissue uptake at 1 h ([1]; liver, 1 h p.i., read-out: Biodistribution, Liver): 3.65 ± 0.25 %ID/g; tissue uptake at 4 h ([1]; liver, 4 h p.i., read-out: Biodistribution, Liver): 3.58 ± 0.85 %ID/g; tissue uptake at 24 h ([1]; liver, 24 h p.i., read-out: Biodistribution, Liver): 2.59 ± 0.31 %ID/g; tissue uptake at 120 h ([1]; liver, 120 h p.i., read-out: Biodistribution, Liver): 1.25 ± 0.51 %ID/g; tissue uptake at 1 h ([1]; lungs, 1 h p.i., read-out: Biodistribution, Lungs): 6.71 ± 3.02 %ID/g; tissue uptake at 4 h ([1]; lungs, 4 h p.i., read-out: Biodistribution, Lungs): 2.34 ± 0.63 %ID/g; tissue uptake at 24 h ([1]; lungs, 24 h p.i., read-out: Biodistribution, Lungs): 0.33 ± 0.08 %ID/g; tissue uptake at 120 h ([1]; lungs, 120 h p.i., read-out: Biodistribution, Lungs): 0.14 ± 0.08 %ID/g; tissue uptake at 1 h ([1]; muscle, 1 h p.i., read-out: Biodistribution, Muscle): 0.75 ± 0.09 %ID/g; tissue uptake at 4 h ([1]; muscle, 4 h p.i., read-out: Biodistribution, Muscle): 0.18 ± 0.09 %ID/g; tissue uptake at 24 h ([1]; muscle, 24 h p.i., read-out: Biodistribution, Muscle): 0.03 ± 0.01 %ID/g; tissue uptake at 120 h ([1]; muscle, 120 h p.i., read-out: Biodistribution, Muscle): 0.02 %ID/g; tissue uptake at 1 h ([1]; pancreas, 1 h p.i., read-out: Biodistribution, Pancreas): 1.13 ± 0.24 %ID/g; tissue uptake at 4 h ([1]; pancreas, 4 h p.i., read-out: Biodistribution, Pancreas): 0.31 ± 0.08 %ID/g; tissue uptake at 24 h ([1]; pancreas, 24 h p.i., read-out: Biodistribution, Pancreas): 0.08 ± 0.02 %ID/g; tissue uptake at 120 h ([1]; pancreas, 120 h p.i., read-out: Biodistribution, Pancreas): 0.05 ± 0.01 %ID/g; tissue uptake at 1 h ([1]; spleen, 1 h p.i., read-out: Biodistribution, Spleen): 2.06 ± 0.21 %ID/g; tissue uptake at 4 h ([1]; spleen, 4 h p.i., read-out: Biodistribution, Spleen): 1.02 ± 0.27 %ID/g; tissue uptake at 24 h ([1]; spleen, 24 h p.i., read-out: Biodistribution, Spleen): 0.64 ± 0.09 %ID/g; tissue uptake at 120 h ([1]; spleen, 120 h p.i., read-out: Biodistribution, Spleen): 0.35 ± 0.15 %ID/g; tissue uptake at 1 h ([1]; stomach, 1 h p.i., read-out: Biodistribution, Stomach): 0.74 ± 0.18 %ID/g; tissue uptake at 4 h ([1]; stomach, 4 h p.i., read-out: Biodistribution, Stomach): 2.33 ± 4.11 %ID/g; tissue uptake at 24 h ([1]; stomach, 24 h p.i., read-out: Biodistribution, Stomach): 0.42 ± 0.13 %ID/g; tissue uptake at 120 h ([1]; stomach, 120 h p.i., read-out: Biodistribution, Stomach): 0.2 ± 0.09 %ID/g; tissue uptake at 1 h ([1]; thyroid, 1 h p.i., read-out: Biodistribution, Thyroid): 2.47 ± 0.26 %ID/g; tissue uptake at 4 h ([1]; thyroid, 4 h p.i., read-out: Biodistribution, Thyroid): 1.66 ± 0.42 %ID/g; tissue uptake at 24 h ([1]; thyroid, 24 h p.i., read-out: Biodistribution, Thyroid): 1.59 ± 0.15 %ID/g; tissue uptake at 120 h ([1]; thyroid, 120 h p.i., read-out: Biodistribution, Thyroid): 1.03 ± 0.24 %ID/g; tissue to tissue ratio at 1 h ([1]; tumour/blood, 1 h p.i., read-out: Tumour/blood): 3.58 ± 0.31; tissue to tissue ratio at 4 h ([1]; tumour/blood, 4 h p.i., read-out: Tumour/blood): 24.3 ± 9.37; tissue to tissue ratio at 24 h ([1]; tumour/blood, 24 h p.i., read-out: Tumour/blood): 397 ± 123; tissue to tissue ratio at 120 h ([1]; tumour/blood, 120 h p.i., read-out: Tumour/blood): 339 ± 149; tissue to tissue ratio at 1 h ([1]; tumour/kidney, 1 h p.i., read-out: Tumour/kidney): 2.04 ± 0.15; tissue to tissue ratio at 4 h ([1]; tumour/kidney, 4 h p.i., read-out: Tumour/kidney): 2.47 ± 0.8; tissue to tissue ratio at 24 h ([1]; tumour/kidney, 24 h p.i., read-out: Tumour/kidney): 2.91 ± 0.2; tissue to tissue ratio at 120 h ([1]; tumour/kidney, 120 h p.i., read-out: Tumour/kidney): 1.89 ± 0.37; tissue to tissue ratio at 1 h ([1]; tumour/muscle, 1 h p.i., read-out: Tumour/muscle): 32.9 ± 2.98; tissue to tissue ratio at 4 h ([1]; tumour/muscle, 4 h p.i., read-out: Tumour/muscle): 194 ± 82.7; tissue to tissue ratio at 24 h ([1]; tumour/muscle, 24 h p.i., read-out: Tumour/muscle): 556 ± 108; tissue to tissue ratio at 120 h ([1]; tumour/muscle, 120 h p.i., read-out: Tumour/muscle): 173 ± 19; excreta dose per gram or mL at 1 h ([1]; urine, 1 h p.i.): 158 ± 83.1 %ID/g; excreta dose per gram or mL at 4 h ([1]; urine, 4 h p.i.): 124 ± 8.4 %ID/g; excreta dose per gram or mL at 24 h ([1]; urine, 24 h p.i.): 4.39 ± 2.89 %ID/g; excreta dose per gram or mL at 120 h ([1]; urine, 120 h p.i.): 1.11 ± 0.72 %ID/g
